From patent publication US6022536A, “Combined use of interleukin 10 and cyclosporin for immunosuppression therapy” (Schering Corporation, priority 1996, dated 2000)

Tests used:
Type in all cases: cell-based, human
IL-2 [1] = experiment: IL-2 in supernatant of PBMC + PBMC MLR, ELISA; conditions: 60 hours; IL-10 100 U/ml; detection limit 50 pg/ml
Description: (§1) ELISA kits for cytokine production determination were purchased from R&D systems, Minneapolis, Minn.
(§2) To investigate the mechanism by which B cell line-induced MLR resists suppression by IL-10, the effect of IL-10 on cytokine synthesis in this MLR was examined. The presence of IL-2, IFN-γ and TNF-α in supernatants of MLR set up with and without IL-10 ([…]) for 60 hours was determined using ELISA kits.
(§3) ^a The MLR cultures were set up as described above using PBMC (1
(§4) × 10^6 /ml) as responder and mitomycin Ctreated JY cells (5
(§5) × 10^5 cell/) or allogeneic PBMC (5 × 10^5) as
(§6) stimulators in a 24well plate for 60 hours. IL10 was used at 100 U/ml and […]

[2] = test system: indirect allostimulation of T cells; experiment: indirect allostimulation: MLR, APC depleted from the stimulator population; conditions: APC's depleted from the stimulator population
Description: (§7) Purified PBMC from human blood were collected in heparinated tubes by FICOLL gradient. The blood was diluted 1:1 with PBS. 30 ml of the diluted blood was laid on top of 20 ml Ficoll in a 50 ml conical tube and spun at 2,000 rpm for 30 minutes. The interface cells were collected and washed 3 times with medium (10% FCS/RPMI).
(§8) The plastic adherent antigen presenting cells (APC) were removed by resuspended PBMC in 1%. human serum (Type AB) at 1×10^6 cells/ml, and incubated at 37° C. for 30 min. The cells which floated were collected and placed in media (10% FCS/RPMI).
(§9) Nylon wool adherent APC were removed as follows:
(§10) A 10 ml syringe was packed with 1.5 g of nylon wool (Polysciences, Inc., Cat. #18369) and autoclaved. A 3-way stopcock and a 22-gauge needle were attached to the syringe, and the column was washed with 50 ml of prewarmed medium. A cell suspension of 5×10^7 cells/ml of […] was prepared in prewarmed medium. Just before adding the cell suspension, the wool was rinsed with 5 ml of prewarmed medium, the column was left to run dry, and the stopcock was closed. Cells (5-10×10^7) were added. The cells were allowed to penetrate the column, and the stopcock was closed. An additional 0.5 ml of medium was added and the column maintained at 37° C. for 45 minutes. […]

PBMC + B = experiment: MLR with purified normal B cells (CD20+) as stimulators, [3H]TdR uptake; conditions: IL-10 200 U/ml; medium 3939 ± 100
Description: (§11) The stimulator PBMAC were treated with 50 μl mitomycin C (Sigma Chemical Co., St. Louis, Mo.) for 20 minutes at 37° C. The responder PBMC and the stimulator cells were added to a 96-well microtiter plate (Becton Dickinson, Lincoln Park, N.J.) at 1×10^5 cells per well of each, along with cytokines or antibodies in a total volume of 200 μl in triplets. The cultures were incubated at 37° C. with 5% CO2 in air for 6 days. The cultures were then pulsed with 1 μCi [^3 H]TdR (15.6CI/mmol, NEN, Boston, Mass.) per well for 16 hours. The cells were harvested onto a filter using a 96-well cell harvestor (Skatron, Inc., Sterling, Va.) and counted on a beta counter (Pharmacia LKB Nuclear Inc., Gaithersburg, Md.).
(§12) The supernatant from the MLR was removed and the non-adherent PBMC harvested. The adherent cells were harvested by incubation with 5 mM EDTA at 4° C. for 20 minutes and gently scraped. Cells were combined, centrifuged at 300×g for 10 minutes and washed 3 times in ice-cold PBS. The viable cells were enumerated by Trypan Blue exclusion using a Neubaeur counting chamber, resuspended to 1×10^7 cell/ml in PBS and 100 μl of human IgG (1 mg/ml) was added to each well and incubated on ice. […] Mean channel fluorescence and percent positives for specific markers were determined using LYSIS II software (BDIS). […]

IFN-γ [3] = experiment: IFN-γ in supernatant of PBMC + PBMC MLR, ELISA; conditions: 60 hours; IL-10 100 U/ml; detection limit 25 pg/ml
Description: as §1, §2, §3, §4, §5, §6

IFN-γ [4] = experiment: IFN-γ in supernatant of JY-induced MLR, ELISA; conditions: 60 hours; IL-10 100 U/ml, CSA 40 ng/ml; PBMC JY alone 5715
Description: as §1, §2, §3, §4, §5, §6

PBMC + JY = experiment: MLR with JY B cell line as stimulator, [3H]TdR uptake
Description: as §11
(§13) To address this question further, the ability of IL-10 to suppress the proliferation in MLR when allogeneic PBMC, purified B cells, monocytes or B cell lines were used as stimulators was studied.

TNF-α [5] = experiment: TNF-α in supernatant of PBMC + PBMC MLR, ELISA; conditions: 60 hours; IL-10 100 U/ml; detection limit 25 pg/ml
Description: as §1, §2, §3, §4, §5, §6

TNF-α [6] = experiment: TNF-α in supernatant of JY-induced MLR, ELISA; conditions: 60 hours; IL-10 100 U/ml, CSA 40 ng/ml; PBMC JY alone 154
Description: as §1, §2, §3, §4, §5, §6

PBMC + Daudi = experiment: MLR with Daudi B cell line as stimulator, [3H]TdR uptake; conditions: IL-10 200 U/ml; medium 37357 ± 4497
Description: as §11, §13

IL-2 [7] = experiment: IL-2 in supernatant of JY-induced MLR, ELISA; conditions: 60 hours; IL-10 100 U/ml, CSA 40 ng/ml; PBMC JY alone 3006
Description: as §1, §2, §3, §4, §5, §6

[8] = test system: direct allostimulation of T cells; experiment: direct allostimulation: one way primary MLR, responder PBMCs depleted of APC; conditions: responder PBMCs depleted of APC's; similar with CD4+ or CD8+ responders
Description: as §7, §8, §9, §10

[9] = test system: T cell proliferation in MLR (PBMC); experiment: one-way primary mixed lymphocyte reaction (MLR), PBMC + mitomycin-treated allogeneic PBMC, [3H]TdR uptake
Description: Human blood samples were collected in heparinized vacutainers. To facilitate removal of red blood cells (RBC), 2 ml of 6% dextran in phosphate buffered saline (PBS) (JRH Biosciences, Lenexa, Kans.) was added to each vacutainer, mixed and allowed to stand at room temperature for 30-45 min. The top buffy coat layer was carefully removed and cells centrifuged (300×g, 10 min., 4° C.). The cells were washed 3 times in 15 ml PBS. The peripheral blood mononuclear cells (PBMC) were isolated using a FICOLL-PAQUE (Pharmacia, Piscataway, N.J.) gradient. Ten ml of cells were layered on top of 4 ml FICOLL-PAQUE, centrifuged (1400×g, 20 min., room temperature) and the cells sedimenting at the interface were collected. These PBMC were washed 3 times in PBS, enumerated and resuspended in appropriate media for use in MLR experiments. […] Cell purity determined by staining with CD14 monoclonal antibodies and flow microfluorometric (FMF) analysis was 92% CD14^+. Viability determined by trypan blue exclusion was >95%.
The stimulator PBMAC were treated with 50 μl mitomycin C (Sigma Chemical Co., St. Louis, Mo.) for 20 minutes at 37° C. […] The cells were harvested onto a filter using a 96-well cell harvestor (Skatron, Inc., Sterling, Va.) and counted on a beta counter (Pharmacia LKB Nuclear Inc., Gaithersburg, Md.). […]

PBMC + monocytes = experiment: MLR with purified monocytes (CD14+) as stimulators; conditions: monocytes (98% CD14+) as stimulators, PBMC as responder
Description: as §11, §12

## IL-10: human interleukin 10, a cytokine produced by T lymphocytes
IL-2 [1]
  Cytokine concentration IL-2: < 50 pg/mL
[2]
  inhibition of indirect allostimulation, compared with CSA: stronger inhibitor to the indirect allostimulation than CSA
PBMC + B
  CPM (M ± SD), 3H-TdR uptake: 182 ± 47 CPM
IFN-γ [3]
  Cytokine concentration IFN-γ: < 25 pg/mL
IFN-γ [4]
  Cytokine concentration IFN-γ: 2960 pg/mL
PBMC + JY; IL-10 200 U/ml, medium 26222 ± 6293
  CPM (M ± SD), 3H-TdR uptake: 25182 ± 7302 CPM
PBMC + JY; higher doses of IL-10 up to 1000 U/ml
  suppression of JY-induced MLR: did not suppress
TNF-α [5]
  Cytokine concentration TNF-α: < 25 pg/mL
TNF-α [6]
  Cytokine concentration TNF-α: 209 pg/mL
PBMC + Daudi
  CPM (M ± SD), 3H-TdR uptake: 45763 ± 3089 CPM
IL-2 [7]
  Cytokine concentration IL-2: 1294 pg/mL
[8]
  suppression of direct allostimulation, compared with CSA: more suppression than CSA
[9]
  IC50: 8 pM
[9]; Human IL-10 100 U/ml, 19B1 and rat IgG at 2.5 U g/ml, untreated MLR 5127 ± 935
  CPM (mean ± SD), 3H-TdR uptake: 643 ± 197 CPM
PBMC + monocytes
  suppression of MLR-induced proliferation: strongly suppresses
